The supplement of paper PMC11451515

Tests used:
Settings in all cases: 48 h
SEM cells [1] = experiment: cell viability relative to DMSO control; higher = less cytotoxic
Summary of the method: (§1)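 Viability was expressed as a per-plate percentage of DMSO wells, with cell-free wells as background. Leukemia cells (NOMO1 or SEM at 500 cells/well, P12-Ichikawa at 1000 cells/well) were adapted for at least four passages in each medium and seeded in 1536-well plates (5 μl). Library compounds in DMSO were pin-dosed over an 11-point threefold series from 47 μM to 0.79 nM, and CellTiter-Glo One luminescence was read after 48 h at 37°C.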

NOMO1 [2] = experiment: as above
Summary of the method: as §1

P12-Ichikawa [3] = experiment: as above
Summary of the method: as §1

SEM cells [4] = experiment: AUC of viability dose-response curve (% viability x log10 dose units); higher = less sensitive
Summary of the method: (§2)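 Over 48 h at 37°C, leukemia cells in 1536-well plates (500 or 1000 cells/well), adapted to each medium, received library compounds in DMSO at 11 threefold doses from 47 μM to 0.79 nM. CellTiter-Glo One luminescence, normalised per plate to DMSO and cell-free wells, was fitted by a four-parameter log-logistic function of log10 dose. The area under the curve was then integrated by trapezoidal rule, after scaling curves above full viability and removing those that failed quality control.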

P12-Ichikawa [5] = experiment: as above
Summary of the method: as §2

NOMO1 [6] = experiment: as above
Summary of the method: as §2

COc1cc2cc(c1Cl)N(C)C(=O)C[C@H](OC(=O)C(C)C)[C@]1(C)O[C@@H]1[C@H](C)[C@@H]1C[C@@](O)(NC(=O)O1)[C@H](OC)/C=C/C=C(\C)C2
cell viability [%]
Settings | NOMO1 [2] | P12-Ichikawa [3] | SEM cells [1]
HPLM + 10% dialyzed FBS, 0.000781 µM | 55.5 | 8.03 | 27.9
HPLM + 10% dialyzed FBS, 0.00234 µM | 53.1 | 10.4 | 26
HPLM + 10% dialyzed FBS, 0.00702 µM | 53.3 | 10 | 28.5
HPLM + 10% dialyzed FBS, 0.0211 µM | 44.3 | 9.14 | 22.6
HPLM + 10% dialyzed FBS, 0.0632 µM | 49 | 10.7 | 15.2
HPLM + 10% dialyzed FBS, 0.19 µM | 41.8 | 8.31 | 9.09
HPLM + 10% dialyzed FBS, 0.569 µM | 42.1 | 8.37 | 7.19
HPLM + 10% dialyzed FBS, 1.71 µM | 41.8 | 6.69 | 6.56
HPLM + 10% dialyzed FBS, 5.12 µM | 34.9 | 6.57 | 5.59
HPLM + 10% dialyzed FBS, 15.4 µM | 35.7 | 5.07 | 4.17
HPLM + 10% dialyzed FBS, 46.1 µM | 13 | 2.08 | 2.54
RPMI 5 mM glucose + 10% FBS, 0.000781 µM | 32.8 | 9.26 | 21.3
RPMI 5 mM glucose + 10% FBS, 0.00234 µM | 29.5 | 12.1 | 24.2
RPMI 5 mM glucose + 10% FBS, 0.00702 µM | 33.7 | 11.2 | 21.4
RPMI 5 mM glucose + 10% FBS, 0.0211 µM | 30.8 | 11.8 | 12.7
RPMI 5 mM glucose + 10% FBS, 0.0632 µM | 27.3 | 11 | 9.24
RPMI 5 mM glucose + 10% FBS, 0.19 µM | 23.5 | 9.9 | 8.39
RPMI 5 mM glucose + 10% FBS, 0.569 µM | 24 | 8.75 | 7.82
RPMI 5 mM glucose + 10% FBS, 1.71 µM | 19 | 8.41 | 6.35
RPMI 5 mM glucose + 10% FBS, 5.12 µM | 22.4 | 6.23 | 4.76
RPMI 5 mM glucose + 10% FBS, 15.4 µM | 26.4 | 5.36 | 4.03
RPMI 5 mM glucose + 10% FBS, 46.1 µM | 9.73 | 2 | 2.1
RPMI 5 mM glucose + 10% dialyzed FBS, 0.000781 µM | 37.2 | 17.5 | 24.3
RPMI 5 mM glucose + 10% dialyzed FBS, 0.00234 µM | 40.4 | 18.1 | 24
RPMI 5 mM glucose + 10% dialyzed FBS, 0.00702 µM | 36.2 | 16.5 | 20.2
RPMI 5 mM glucose + 10% dialyzed FBS, 0.0211 µM | 32.1 | 14.6 | 14.5
RPMI 5 mM glucose + 10% dialyzed FBS, 0.0632 µM | 22.9 | 14.3 | 8.42
RPMI 5 mM glucose + 10% dialyzed FBS, 0.19 µM | 22.2 | 12.9 | 5.55
RPMI 5 mM glucose + 10% dialyzed FBS, 0.569 µM | 25.4 | 12.2 | 5.76
RPMI 5 mM glucose + 10% dialyzed FBS, 1.71 µM | 22.4 | 10.2 | 5.03
RPMI 5 mM glucose + 10% dialyzed FBS, 5.12 µM | 25.9 | 8.98 | 4.42
RPMI 5 mM glucose + 10% dialyzed FBS, 15.4 µM | 27.8 | 8.07 | 3.49
RPMI 5 mM glucose + 10% dialyzed FBS, 46.1 µM | 11.8 | 2.84 | 1.84

AUC of viability dose-response curve
Settings | HPLM + 10% dialyzed FBS | RPMI 5 mM glucose + 10% FBS | RPMI 5 mM glucose + 10% dialyzed FBS
P12-Ichikawa [5] | 37.9 | 42.6 | 59.7
SEM cells [4] | 66.3 | 51.6 | 49.3

O=C(O)/C=C/c1ccc(Cn2ccnc2)cc1
AUC of viability dose-response curve
Settings | NOMO1 [6] | P12-Ichikawa [5] | SEM cells [4]
HPLM + 10% dialyzed FBS | 469 | 438 | 466
RPMI 5 mM glucose + 10% FBS | 438 | 436 | 471
RPMI 5 mM glucose + 10% dialyzed FBS | 460 | 464 | 473

Nc1ncnc2c1ncn2[C@@H]1O[C@H](CO)[C@@H](O)[C@H]1O
AUC of viability dose-response curve
Settings | HPLM + 10% dialyzed FBS | RPMI 5 mM glucose + 10% FBS | RPMI 5 mM glucose + 10% dialyzed FBS
NOMO1 [6] | 388 | 402 | 397
SEM cells [4] | 462 | 454 | 463

CN1CCN(c2ncc(-c3cc(Cl)cc(Cl)c3Cl)c(N)n2)CC1
cell viability [%], SEM cells [1]
Settings | RPMI 5 mM glucose + 10% FBS | RPMI 5 mM glucose + 10% dialyzed FBS
0.000781 µM | 111 | 106
0.00234 µM | 117 | 118
0.00702 µM | 133 | 117
0.0211 µM | 137 | 133
0.0632 µM | 135 | 139
0.19 µM | 135 | 135
0.569 µM | 126 | 150
1.71 µM | 135 | 141
5.12 µM | 155 | 144
15.4 µM | 138 | 141
46.1 µM | 132 | 132

AUC of viability dose-response curve
Settings | HPLM + 10% dialyzed FBS | RPMI 5 mM glucose + 10% FBS | RPMI 5 mM glucose + 10% dialyzed FBS
NOMO1 [6] | 337 | 305 | 341
SEM cells [4] | 467 | 459 | 450

CC(C)C[C@H](CC(=O)O)C(=O)N[C@@H](Cc1c[nH]c2ccccc12)C(=O)N[C@@H](C)c1ccccc1
cell viability [%]
Settings | NOMO1 [2] | P12-Ichikawa [3] | SEM cells [1]
HPLM + 10% dialyzed FBS, 0.000781 µM | 122 | 95.1 | 96.1
HPLM + 10% dialyzed FBS, 0.00234 µM | 114 | 102 | 100
HPLM + 10% dialyzed FBS, 0.00702 µM | 124 | 108 | 119
HPLM + 10% dialyzed FBS, 0.0211 µM | 112 | 108 | 113
HPLM + 10% dialyzed FBS, 0.0632 µM | 109 | 112 | 106
HPLM + 10% dialyzed FBS, 0.19 µM | 123 | 111 | 105
HPLM + 10% dialyzed FBS, 0.569 µM | 104 | 83.6 | 7.87
HPLM + 10% dialyzed FBS, 1.71 µM | 116 | 107 | 92.1
HPLM + 10% dialyzed FBS, 5.12 µM | 95.9 | 73.4 | 112
HPLM + 10% dialyzed FBS, 15.4 µM | 60.9 | 42.1 | 73.1
HPLM + 10% dialyzed FBS, 46.1 µM | 37.3 | 22.4 | 54
RPMI 5 mM glucose + 10% FBS, 0.000781 µM | 91.3 | 89 | 96.1
RPMI 5 mM glucose + 10% FBS, 0.00234 µM | 93.9 | 96 | 112
RPMI 5 mM glucose + 10% FBS, 0.00702 µM | 105 | 111 | 125
RPMI 5 mM glucose + 10% FBS, 0.0211 µM | 103 | 101 | 116
RPMI 5 mM glucose + 10% FBS, 0.0632 µM | 109 | 94.2 | 110
RPMI 5 mM glucose + 10% FBS, 0.19 µM | 109 | 106 | 122
RPMI 5 mM glucose + 10% FBS, 0.569 µM | 107 | 83.7 | 8.87
RPMI 5 mM glucose + 10% FBS, 1.71 µM | 107 | 106 | 86.2
RPMI 5 mM glucose + 10% FBS, 5.12 µM | 105 | 72.6 | 96.9
RPMI 5 mM glucose + 10% FBS, 15.4 µM | 74.8 | 53.4 | 65.9
RPMI 5 mM glucose + 10% FBS, 46.1 µM | 29.5 | 32.9 | 54.3
RPMI 5 mM glucose + 10% dialyzed FBS, 0.000781 µM | 104 | 103 | 77.7
RPMI 5 mM glucose + 10% dialyzed FBS, 0.00234 µM | 115 | 111 | 90.4
RPMI 5 mM glucose + 10% dialyzed FBS, 0.00702 µM | 105 | 101 | 97.3
RPMI 5 mM glucose + 10% dialyzed FBS, 0.0211 µM | 105 | 119 | 113
RPMI 5 mM glucose + 10% dialyzed FBS, 0.0632 µM | 114 | 107 | 89.6
RPMI 5 mM glucose + 10% dialyzed FBS, 0.19 µM | 114 | 108 | 87.2
RPMI 5 mM glucose + 10% dialyzed FBS, 0.569 µM | 116 | 103 | 8.39
RPMI 5 mM glucose + 10% dialyzed FBS, 1.71 µM | 127 | 107 | 79.4
RPMI 5 mM glucose + 10% dialyzed FBS, 5.12 µM | 113 | 74.8 | 90.2
RPMI 5 mM glucose + 10% dialyzed FBS, 15.4 µM | 113 | 67.8 | 53.7
RPMI 5 mM glucose + 10% dialyzed FBS, 46.1 µM | 56.6 | 28.2 | 46.4

AUC of viability dose-response curve
Settings | HPLM + 10% dialyzed FBS | RPMI 5 mM glucose + 10% FBS | RPMI 5 mM glucose + 10% dialyzed FBS
NOMO1 [6] | 428 | 446 | 465
P12-Ichikawa [5] | 413 | 419 | 421
